Results taken from US7541379B2, “Di(amido-substituted)heteroarene compounds as osteoblastogenesis agents” (The University of Hong Kong, priority 2005, dated 2009).
“Also recorded” adds a separate entry of the source.

Assays:
[1] = test system: ALP; assay: ALP enzyme activity assay (PNPP hydrolysis) in MC3T3-E1 (clone 4) cells; format: cell-based
Description: Cell culture. […]
(§1) ALP assay. ALP activity was measured as p-nitrophenol produced from the hydrolysis of p-nitrophenyl phosphate (PNPP). […] The reaction was stopped by the addition of NaOH (final concentration, 0.5 M) and the absorbance was measured at 410 nm. Enzyme activity was normalized to the protein content determined using Protein Assay Kit (Bio-Rad). […]
as §1, with “MC3T3-E1 (clone 4) cells were cultured for 4, 10, and 14 days with the presence of VCM supplemented with different concentrations (range from 0.01 to 1 μg/mL) of di(amido-substituted)heteroarene compounds. […]” for “ALP assay.”, “absorbance” for “absorbance was”

[2] = test system: ALP mRNA; assay: ALP mRNA expression by real-time quantitative RT-PCR in MC3T3-E1 (clone 4) cells; format: cell-based; conditions: 4 days, osteogenic medium
Description: (§2) Cell culture. MC3T3-E1 (clone 4) cells ([…], Manassas, Va., U.S.A.) were maintained in complete growth medium, i.e., alpha-MEM supplemented with 100 U/mL penicillin, 100 μg/mL streptomycin, and 10% heat-inactivated fetal bovine serum (JRH Biosciences, Lenexa, Kans., U.S.A. Ascorbic acid (AsA) and β-glycerophosphate (β-GP) were purchased from Sigma-Aldrich Co. (St. Louis, […]., U.S.A.). For the screening of osteoblastogenesis-inducing compounds, cells were plated in 24-well plates in complete growth medium at 5×10^4 cells/cm^2 and after overnight incubation, potential osteoblastogenesis modulating agents were added at 3 different concentrations, each with 10 fold difference. […]
(§3) Real-time quantitative reverse transcription (RT) PCR. […] ALP and osterix mRNA expression was determined by RT followed by real-time TaqMan PCR analysis. […] All PCR reactions were performed in triplicate and data obtained were analyzed using the comparative CT method (Applied Biosystems) with ALP/osterix signals normalized to 18S signal for each sample.
MC3T3-E1 (clone 4) cells were cultured for 4 days, and total RNA was extracted. […] Expression level of osterix expression in MC3T3-E1 (clone 4) cells was determined using Real-Time TaqMan polymerase chain reaction (PCR). […]

[3] = test system: osterix mRNA; assay: Osterix mRNA expression by real-time quantitative RT-PCR in MC3T3-E1 (clone 4) cells; format: cell-based; conditions: 1 μg/mL (high concentrations), 4 days, osteogenic medium
Description: as §2, §3
MC3T3-E1 (clone 4) cells were cultured for 4 days, and total RNA was extracted. […] Expression level of osterix expression in MC3T3-E1 (clone 4) cells was determined using Real-Time TaqMan PCR. […]

[4] = test system: MC3T3-E1 (clone 4) cells; assay: MTT-based cell proliferation assay; conditions: 0.01 to 1 μg/mL, 2 days, osteogenic medium
Description: (§4) Cell proliferation assay. Cell proliferation studies were performed as previously described using MTT-based (GE Healthcare, Piscataway, N.J., USA) cell proliferation assays (Cheung et a/, FEBS Lett (2006), 580, 121). After treatment with potential osteoblastogenesis modulating agents for 2 days, MTT was added at a final concentration of 0.5 mg/ml for 3 h, cells were solubilized with isopropanol containing 0.1% sodium dodecyl sulfate and 0.04 N hydrochloric acid, and the absorbance measured at 570 nm. All experiments were repeated three times.
as §4, with “Cell” for “Cell proliferation assay. Cell”, “MTT” for “MTT-based”, “USA)” for “USA) cell proliferation”, “al,” for “a/,”, “the candidate compounds (concentrations 0.01 to 1 μg/mL)” for “potential osteoblastogenesis modulating agents”

[5] = test system: MC3T3-E1 (clone 4) cells; assay: Bone nodule formation and mineralization (Alizarin red stain); format: cell-based; conditions: 0.01 to 1 μg/mL, 26 days, osteogenic conditions
Description: Cells were washed twice with ice-cold PBS and then fixed in ice-cold fixative (10% formalin in PBS) for 15 min. After washed with deionized water, fixed cells were stained with 1% alizarin S solution, pH 4.2 for 15 min and then were washed thoroughly with deionized water. Mineralized matrix was then detected.

[6] = Cytotoxicity by standard MTT assay on Vero cells; format: cell-based, African green monkey; conditions: African green monkey, MTT assay, read-out: TC50 (the source's name)
Description: (§5) Cytotoxicity assay. Vero cells, an African green monkey cell line were purchased from American Type Culture Collection (ATCC) and Cell Proliferation Kit I MTT (3-[4,5-dimethylth-iazol-2-yl]-2,5-diphenyltetrazolium bromide) assay was purchased from Roche. Normal human lung fibroblast cell line (CCD-19Lu) was obtained commercially from ATCC. CCD-19Lu cells were maintained in a minimum essential medium with Earle's balanced salts (MEM). The media were supplemented with L-glutamine (2 mM), fetal bovine serum (10%), penicillin (100 U/mL) and streptomycin (100 μg/mL). Cultures were incubated at 37° C. in a 5% CO2/95% air humidified atmosphere. Cell culture flasks and 96-well microtitre plates were purchased from Nalge Nunc Int. Culture medium, other medium constituents and phosphate buffered saline (PBS) were from Gibco BRL.
(§6) The cytotoxicity of selected compounds was determined by MTT according to manufacturer's (Roche) instructions. The experiment (cell viability using MTT as an indicator) was carried out in triplicates. The TC50 (on Vero cells, an African green monkey cell line) is ca. 50 μM, it is concluded that these compounds may be useful for osteoblastogenesis development.

[7] = test system: African green monkey Vero cells; assay: Cytotoxicity by standard MTT assay on Vero cells; format: cell-based
Description: as §5, §6

[8] = test system: CCD-19L cells; assay: Cytotoxicity by MTT assay on CCD-19L cells (vs vehicle control); format: cell-based, human; conditions: 72 h
Text: As used herein, the term “CCD-19L cells” described herein refers to normal human lung fibroblast cell line.
as §5
Assays on cytotoxic effects were conducted in 96-well flat-bottomed microtitre plates. […] The formation of formazan was measured with a microtitre plate reader at 550 nm and the percentages of cell survival were determined. The cytotoxicity was evaluated based on the percentage cell survival in a dose dependent manner relative to the negative control (FIG. 8).

Cc1ccc(S(=O)(=O)Nc2cn(C)cc2NS(=O)(=O)c2ccc(C)cc2)cc1 [compound 1]
effect on ALP enzyme activity ([1]; 0.01 to 1 μg/mL, osteogenic medium, 4, 10 and 14 days): significantly enhanced ALP enzyme activity in a dose-dependent manner | ALP activity up-regulated compared to the control ([1]; 14 days of treatment, 0.1 μg/mL, osteogenic medium): 2 fold | ALP mRNA expression up-regulated ([2]; 0.1 μg/mL): 16% | effect on ALP mRNA expression ([2]; 0.1 and 1 μg/mL): enhanced ALP mRNA expression | effect on osterix mRNA expression [3]: effectively up-regulated mRNA expression of osterix; also recorded: enhanced osterix mRNA expression | effect on cell proliferation (MTT) [4]: did not alter | effect on mineralization of bone nodules [5]: potentiated mineralization of bone nodules | CC50 [6]: 57 µM | CC50 ([7]; MTT assay, read-out: TC50 (the source's name)): ≤ 57 µM | cytotoxicity on Vero cells ([7]; standard MTT assay): low cytotoxicity | cytotoxicity on CCD-19L cells [8]: low cytotoxicity
